According to patent US20140179800A1, “Inhibition of the Survival of Bladder Cancer by Cyclohexenone Compounds from Antrodia Camphorata” (Golden Biotechnology Corporation, priority 2009, published 2014):

Test system: bladder cancer cell line TSGH-8301
Test: In vitro survival assay (MTT) for anti-bladder cancer effects
Format: cell-based
Details: TSGH-8301 human bladder carcinoma cells, 48 hours, survival rate
Procedure: Inhibiting effects of bladder cancer cells by cyclohexenone compounds of Antrodia camphorata from example 1 were assessed according to the anticancer-drug screening model of National Cancer Institute (NCI). The compound 4-hydroxy-2,3-dimethoxy-6-methyl-5-(3,7,11-trimethyl-dodeca-2,6,10-trienyl)-cyclohex-2-enone from example 1 was added into the culture media of bladder cancer cell line TSGH-8301 to determine the survival rates. Survival of cell was analyzed using MTT assay. TSGH-8301 cell line was a human bladder carcinoma cell line.
MTT assay is commonly used to analyze cell proliferation, survival rate of viable cells and cytotoxicity. MTT (3[4,5-dimethylthiazol-2-yl]-2,5-diphenyltetrazolium bromide) is a yellow dye which can be converted to water-insoluble purple formazan on the reductive cleavage of its tetrazolium ring by the succinate tetrazolium reductase in mitochondria of cells. The amount of formazan produced is used to detect the number of viable cells and calculate the survival rates.
The TSGH-8301 cells were cultivated in DMEM medium supplemented with 10% fetal bovine serum, 100 U/ml of Penicillin and 100 μg/ml of Streptomycin at 37° C., 5% CO2 for 24 hours. Proliferated cells were washed once with PBS, treated with 1× trypsin-EDTA, and centrifuged at 1200 rpm for 5 min. […] The absorbances were measured at 570 nm with an ELISA Reader to determine the survival rates.

## COC1=C(OC)C(O)C(C/C=C(\C)CC/C=C(\C)CCC=C(C)C)C(C)C1=O (stereo not shown) [formula 2, 4-hydroxy-2,3-dimethoxy-6-methyl-5-(3,7,11-trimethyl-dodeca-2,6,10-trienyl)-cyclohex-2-enone]
  IC50: 1.05 µg/mL
